{
  "source": "paper PMC10820479",
  "about": "“An Improved In Vitro Blood-Brain Barrier Model for the Evaluation of Drug Permeability Using Transwell with Shear Stress” (Pharmaceutics, 2023)",
  "key": {"[1]": {"test": "Permeability test in the optimized annular shaking dish (AS) BBB model", "details": "human", "procedure": "(§1) The culture inserts (Costar®, Washington, DC, USA, 6.5 mm diameter) of polycarbonate (PC) and polyester (PET) membrane were procured from Corning Inc. (Corning, NY, USA). […] After washing twice with PBS, the cells were seeded at a density of 1 × 10^5 hCMEC/D3 cells/well in the apical chamber and 3 × 10^4 U87MG cells/well on the basolateral side of the insert. The cultivation method was modified from that described in the literature. Briefly, the insert was inverted, and U87MG cells were initially seeded. The insert was flipped 3–4 h after seeding the U87MG cells. Subsequently, hCMEC/D3 cells were seeded 1 day later.\n(§2) To prevent nonspecific binding, all compounds were pre-incubated for 30 min prior to the permeability study. The samples were collected at 0 min from the donor and at 30, 60, and 90 min from the acceptor and immediately replaced with a new transport buffer. Incubation was carried out in a humidified 5% CO2 environment at 37 °C with shaking at 100 rpm.\n(§3) After culturing the cells in culture inserts, as described in Section 2.3, they were transferred to the AS prepared on day 3, and cultivation was carried out with orbital shaking at 150 rpm until day 17 (Figure 1b). The cultivated AS BBB model was employed to investigate the effects of the AS size, as well as the influence of FBS and ITS.\n(§4) Chromatographic separations were performed on Agilent Poroshell 120 EC-C18 (3.0 × 50 mm, 2.7 µm; Agilent Technologies, Inc., Santa Clara, CA, USA) and YMC triart C18 (2.0 × 50 mm, 3 µm; YMC Co., Ltd., Kyoto, Japan) columns using 5 mM ammonium formate in water (pH 4) and methanol.\n(§5) The optimized AS BBB model was evaluated as follows."}, "[2]": {"details": "rat; unbound plasma-CSF partition coefficient; cited from earlier work"}, "[3]": {"details": "monkey; unbound plasma-CSF partition coefficient; cited from earlier work"}, "[4]": {"test_system": "in vitro AS BBB model (hCMEC/D3 co-cultured with U87MG)", "test": "Permeability test in the optimized annular shaking dish (AS) BBB model", "details": "optimized AS BBB model", "procedure": "as §1, §2, §3, §4, §5"}, "P-glycoprotein (P-gp)": {"test_system": "P-glycoprotein (P-gp)", "test": "Rhodamine 123 efflux (bidirectional permeability, P-gp activity)", "details": "for efflux ratio: 10 μM; for efflux ratio at 90 min, 10 μM: human, not told", "method": "Bidirectional permeability tests were performed at time points of 0, 30, 60, and 90 min with shaking at 100 rpm. Each sample was measured at 480 nm/530 nm (excitation/emission wavelengths) using the VICTOR® Nivo multimode plate reader. The apparent permeability coefficient (Papp) was determined using Equation (2):Papp (cm/s) = dQ/dt × 1/(A × C0)(2) where: • A is the surface area of the insert filter membrane (cm^2) • C0 is the initial concentration in the donor solution (μM) • dQ/dt is the amount of the drug transported within a given time period (pmol/s)"}, "P-gp": {"test_system": "P-gp", "test": "Efflux transporter inhibition assay, P-gp, AS BBB model", "type": "in vitro ADME", "details": "human, optimized AS BBB model", "procedure": "A modified method from a previously published paper was used for the inhibition assay. […] The bidirectional permeability of substrates was evaluated by measuring changes in Papp and the efflux ratio for both the inhibitor- and vehicle-treated groups. The concentration of dantrolene was determined using liquid chromatography with tandem mass spectrometry (LC-MS/MS)."}, "[5]": {"test_system": "hCMEC/D3 cell layer on transwell inserts", "test": "Lucifer yellow (LY) diffusion, cell layer integrity", "details": "AS BBB model (discussion)"}},
  "note": "Counter-ions that a name gives are not always drawn. Like-named read-outs stand apart in the source and are kept apart here.",
  "data": [
    {"molecule": "O=C1NC(=O)C(c2ccccc2)(c2ccccc2)N1", "note": "[Phenytoin, phenytoin sodium]", "values": [
      {"measurement": "Papp at 90 min, 20 μM", "setting": "[1]", "value": "21.8 ± 1.2", "unit": "×10⁻⁶ cm/s"}
    ]},
    {"molecule": "CC(C)NCC(O)COc1cccc2ccccc12", "note": "(stereo not shown) [Propranolol, propranolol HCl]", "values": [
      {"measurement": "Papp at 90 min, 20 μM", "setting": "[1]", "value": "24.6 ± 4.5", "unit": "×10⁻⁶ cm/s"}
    ]},
    {"molecule": "Cc1ncc2n1-c1ccc(Cl)cc1C(c1ccccc1F)=NC2", "note": "[Midazolam]", "values": [
      {"measurement": "Kp,uu,CSF", "setting": "[2]", "value": "1.35 (rat) ^2"},
      {"measurement": "Papp", "setting": "[1]", "value": "41.5 ± 2.8", "unit": "×10⁻⁶ cm/s"}
    ]},
    {"molecule": "NC(=O)N1c2ccccc2C=Cc2ccccc21", "note": "[Carbamazepine, carbamazepine]", "values": [
      {"measurement": "Kp,uu,CSF", "setting": "[3]", "value": "0.979 (monkey) ^3"},
      {"measurement": "Papp at 90 min, 20 μM", "setting": "[1]", "value": "29 ± 4.4", "unit": "×10⁻⁶ cm/s"},
      {"measurement": "permeability (in words)", "setting": "[4]", "value": "high permeability"}
    ]},
    {"molecule": "CCN1CCCC1CNC(=O)c1cc(S(N)(=O)=O)ccc1OC", "note": "(stereo not shown) [Sulpiride, sulpiride]", "values": [
      {"measurement": "Kp,uu,CSF", "setting": "[2]", "value": "0.049 (rat) ^2"},
      {"measurement": "Papp at 90 min, 20 μM", "setting": "[1]", "value": "10.2 ± 0.82", "unit": "×10⁻⁶ cm/s"}
    ]},
    {"molecule": "COC(=O)c1ccccc1-c1c2ccc(=N)cc-2oc2cc(N)ccc12", "note": "[Rhodamine123, rhodamine 123]", "values": [
      {"measurement": "efflux ratio", "setting": "P-glycoprotein (P-gp); 15 cm AS group", "value": "exceeding two"},
      {"measurement": "efflux ratio", "setting": "P-glycoprotein (P-gp); 15 cm AS, 5% FBS + ITS", "value": "4.04 ± 0.04"},
      {"measurement": "efflux ratio at 90 min, 10 μM", "setting": "P-glycoprotein (P-gp); 15 cm AS, 2% FBS + ITS", "value": "6.73 ± 0.94"},
      {"measurement": "efflux ratio at 90 min, 10 μM", "setting": "P-glycoprotein (P-gp); 15 cm AS, 5% FBS", "value": "2.4 ± 0.05"},
      {"measurement": "efflux ratio at 90 min, 10 μM", "setting": "P-glycoprotein (P-gp); 15 cm AS, 5% FBS + ITS", "value": "4 ± 0.04"},
      {"measurement": "efflux ratio at 10 μM", "setting": "P-gp; with cyclosporin A 10 μM, with P-gp inhibitor cyclosporin A 10 μM", "value": "1.6 ± 0.13"},
      {"measurement": "efflux ratio at 10 μM", "setting": "P-gp; without inhibitor, 10 μM", "value": "4.2 ± 0.15"},
      {"measurement": "Papp at 90 min, 20 μM", "setting": "[1]", "value": "0.67 ± 0.14", "unit": "×10⁻⁶ cm/s"},
      {"measurement": "permeability (in words)", "setting": "[4]", "value": "low"}
    ]},
    {"molecule": "lucifer yellow CH dipotassium salt [LY]", "values": [
      {"measurement": "transport of LY through the paracellular pathway", "setting": "[5]", "value": "less than 1%"}
    ]}
  ]
}
